Source: PubChem BioAssay AID2060490 (Molecular Pharmacology Branch, DTP, NCI, 2025)
Values belong to the compound of their own block, whether it stands above or below them.

Tested on: 885512-296-R-J2-PDC complex spheroid viability
Assay: Anticancer human tumor 885512-296-R-J2-PDC patient-derived breast carcinoma cell line growth inhibition [GQUAD]
Conditions: for IC50: curve of first compound; for viability, T/C: stronger effect = lower value
Summary of the method: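 Multi-cell-type spheroids of tumor cells with HUVEC and mesenchymal stem cells, treated with drug combinations. Concentrations descend in half-log steps from near clinical Cmax, or from 10 microM where Cmax is unknown; viability read-out.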

[1] = second compound 0.0316 µM, first compound 0.0316 µM
[2] = second compound 0.0316 µM, first compound 0.1 µM
[3] = second compound 0.0316 µM, first compound 0.316 µM
[4] = second compound 0.0316 µM, first compound 1 µM
[5] = second compound 0.0316 µM, first compound 3.16 µM
[6] = second compound 0.0316 µM, first compound 10 µM
[7] = second compound 0.1 µM, first compound 0.0316 µM
[8] = second compound 0.1 µM, first compound 0.1 µM
[9] = second compound 0.1 µM, first compound 0.316 µM
[10] = second compound 0.1 µM, first compound 1 µM
[11] = second compound 0.1 µM, first compound 3.16 µM
[12] = second compound 0.1 µM, first compound 10 µM
[13] = second compound 0.316 µM, first compound 0.0316 µM
[14] = second compound 0.316 µM, first compound 0.1 µM
[15] = second compound 0.316 µM, first compound 0.316 µM
[16] = second compound 0.316 µM, first compound 1 µM
[17] = second compound 0.316 µM, first compound 3.16 µM
[18] = second compound 0.316 µM, first compound 10 µM
[19] = second compound 1 µM, first compound 0.0316 µM
[20] = second compound 1 µM, first compound 0.1 µM
[21] = second compound 1 µM, first compound 0.316 µM
[22] = second compound 1 µM, first compound 1 µM
[23] = second compound 1 µM, first compound 3.16 µM
[24] = second compound 1 µM, first compound 10 µM
[25] = second compound 3.16 µM, first compound 0.0316 µM
[26] = second compound 3.16 µM, first compound 0.1 µM
[27] = second compound 3.16 µM, first compound 0.316 µM
[28] = second compound 3.16 µM, first compound 1 µM
[29] = second compound 3.16 µM, first compound 3.16 µM
[30] = second compound 3.16 µM, first compound 10 µM
[31] = second compound 10 µM, first compound 0.0316 µM
[32] = second compound 10 µM, first compound 0.1 µM
[33] = second compound 10 µM, first compound 0.316 µM
[34] = second compound 10 µM, first compound 1 µM
[35] = second compound 10 µM, first compound 3.16 µM
[36] = second compound 10 µM, first compound 10 µM
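Also: spheroids exposed to the compounds for one week.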
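For viability, T/C in this document: percent of tumor spheroid viability relative to DMSO vehicle control wells.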

IC50 (second compound 0.0316 µM): < 0.0316 µM
IC50 (second compound 0.1 µM): < 0.0316 µM
IC50 (second compound 0.316 µM): < 0.0316 µM
IC50 (second compound 1 µM): < 0.0316 µM
IC50 (second compound 3.16 µM): < 0.0316 µM
IC50 (second compound 10 µM): < 0.0316 µM
Structure (SMILES): CC1COCCN1c1cc(C2(O)CC3CCC(C2)O3)c2cnn(-c3ccn[nH]3)c2n1 (centres undefined) + Cc1cnc(CNC(=O)c2c(=O)c3ccc(N4CCCN(C)CC4)nc3n3c2sc2ccccc23)cn1
viability, T/C [1]: 5.92%
viability, T/C [2]: 3.36%
viability, T/C [3]: 3.06%
viability, T/C [4]: 4.49%
viability, T/C [5]: 5.92%
viability, T/C [6]: 7.8%
viability, T/C [7]: 5.95%
viability, T/C [8]: 3.36%
viability, T/C [9]: 3.12%
viability, T/C [10]: 4.44%
viability, T/C [11]: 6.08%
viability, T/C [12]: 7%
viability, T/C [13]: 4.59%
viability, T/C [14]: 4.72%
viability, T/C [15]: 4.92%
viability, T/C [16]: 5.25%
viability, T/C [17]: 7.22%
viability, T/C [18]: 7.55%
viability, T/C [19]: 6.13%
viability, T/C [20]: 4.5%
viability, T/C [21]: 5.8%
viability, T/C [22]: 6.61%
viability, T/C [23]: 7.78%
viability, T/C [24]: 6.44%
viability, T/C [25]: 2.58%
viability, T/C [26]: 3.35%
viability, T/C [27]: 4.73%
viability, T/C [28]: 4.41%
viability, T/C [29]: 2.5%
viability, T/C [30]: 1.93%
viability, T/C [31]: 0.03%
viability, T/C [32]: 0.09%
viability, T/C [33]: 0.14%
viability, T/C [34]: 0.07%
viability, T/C [35]: 0.12%
viability, T/C [36]: 0.12%

Structure (SMILES): COc1ccc([C@@H](O)c2cc(-c3ncnc4cc(N5CCOCC5)ccc34)c(F)cc2Cl)nn1 + CN(C)c1ccc(Nc2c3ccc(NC(=O)CCN4CCCC4)cc3nc3cc(NC(=O)CCN4CCCC4)ccc23)cc1
IC50 (second compound 0.0316 µM): 9.54 µM
IC50 (second compound 0.1 µM): > 10 µM
IC50 (second compound 0.316 µM): > 10 µM
IC50 (second compound 1 µM): > 10 µM
IC50 (second compound 3.16 µM): 4.1 µM
IC50 (second compound 10 µM): < 0.0316 µM
viability, T/C [1]: 105%
viability, T/C [2]: 106%
viability, T/C [3]: 104%
viability, T/C [4]: 103%
viability, T/C [5]: 83.8%
viability, T/C [6]: 48.5%
viability, T/C [7]: 121%
viability, T/C [8]: 93.8%
viability, T/C [9]: 92.1%
viability, T/C [10]: 92.7%
viability, T/C [11]: 74.4%
viability, T/C [12]: 53.6%
viability, T/C [13]: 104%
viability, T/C [14]: 98.1%
viability, T/C [15]: 91%
viability, T/C [16]: 86.6%
viability, T/C [17]: 81.6%
viability, T/C [18]: 50.1%
viability, T/C [19]: 93.4%
viability, T/C [20]: 101%
viability, T/C [21]: 98.5%
viability, T/C [22]: 88.1%
viability, T/C [23]: 81.3%
viability, T/C [24]: 51.9%
viability, T/C [25]: 94.6%
viability, T/C [26]: 101%
viability, T/C [27]: 86%
viability, T/C [28]: 63%
viability, T/C [29]: 60.2%
viability, T/C [30]: 34.9%
viability, T/C [31]: 13.4%
viability, T/C [32]: 21.5%
viability, T/C [33]: 19.6%
viability, T/C [34]: 14.6%
viability, T/C [35]: 10.4%
viability, T/C [36]: 6.55%
